Reference: ChEMBL document CHEMBL4033732, “Identification and synthesis of novel inhibitors of mycobacterium ATP synthase” (Bioorg Med Chem Lett, 2017)
Values after ≈ are worked out from the molar mass of the structure shown.

How the values were obtained:
CYP2C19 = CYP2C19 (Homo sapiens, UniProt P33261); test: Inhibition of CYP2C19 in human liver microsomes at 10 uM; type: ADME
[1] = system: Mycobacterium tuberculosis; test: Antimicrobial activity against Mycobacterium tuberculosis H37Rv assessed as reduction in microbial growth incubated for 5 days by CLSI protocol based assay; type: functional; conditions: 120 h
CYP1A2 = target: T1, CYP1A2 (Homo sapiens, UniProt P05177); test: Inhibition of CYP1A2 in human liver microsomes at 10 uM; type: ADME
T1 sequence (P05177 whole entry): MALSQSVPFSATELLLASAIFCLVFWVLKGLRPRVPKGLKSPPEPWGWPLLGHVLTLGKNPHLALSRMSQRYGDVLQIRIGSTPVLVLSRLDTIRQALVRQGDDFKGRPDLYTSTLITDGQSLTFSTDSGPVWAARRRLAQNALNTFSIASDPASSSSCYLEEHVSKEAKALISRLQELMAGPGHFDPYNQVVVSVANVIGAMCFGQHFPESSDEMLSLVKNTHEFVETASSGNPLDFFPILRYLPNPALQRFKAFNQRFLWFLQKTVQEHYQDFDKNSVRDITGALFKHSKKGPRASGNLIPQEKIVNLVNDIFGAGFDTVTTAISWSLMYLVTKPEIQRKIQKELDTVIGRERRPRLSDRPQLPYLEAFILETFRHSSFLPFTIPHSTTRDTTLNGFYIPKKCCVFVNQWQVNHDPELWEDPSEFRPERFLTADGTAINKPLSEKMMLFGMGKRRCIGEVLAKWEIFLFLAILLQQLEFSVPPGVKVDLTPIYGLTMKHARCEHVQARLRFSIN

CYP2D6 = CYP2D6 (Homo sapiens, UniProt P10635); test: Inhibition of CYP2D6 in human liver microsomes at 10 uM; type: ADME
[2] = Solubility in pH 6.8 buffer; type: physicochemical
[3] = Inhibition of ATP synathse in Mycobacterium smegmatis str. MC2 155 inverted membrane vesicles assessed as ATP formation pre-incubated for 30 mins before NADH-ADP-phosphate buffer cocktail addition and measured after 60 mins by kinase glow reagent based assay; parameters: species or system Mycolicibacterium smegmatis MC2 155
CYP3A4 = CYP3A4 (Homo sapiens, UniProt P08684); test: Inhibition of CYP3A4 in human liver microsomes at 10 uM; type: ADME
[4] = Lipophilicity, log D of the compound; type: physicochemical; conditions: octanol/water
CYP2C9 = CYP2C9 (Homo sapiens, UniProt P11712); test: Inhibition of CYP2C9 in human liver microsomes at 10 uM; type: ADME
HeLa = test: Cytotoxicity against human HeLa cells incubated for 48 hrs by MTT assay; type: functional

CYP3A4, sequence (P08684 whole entry): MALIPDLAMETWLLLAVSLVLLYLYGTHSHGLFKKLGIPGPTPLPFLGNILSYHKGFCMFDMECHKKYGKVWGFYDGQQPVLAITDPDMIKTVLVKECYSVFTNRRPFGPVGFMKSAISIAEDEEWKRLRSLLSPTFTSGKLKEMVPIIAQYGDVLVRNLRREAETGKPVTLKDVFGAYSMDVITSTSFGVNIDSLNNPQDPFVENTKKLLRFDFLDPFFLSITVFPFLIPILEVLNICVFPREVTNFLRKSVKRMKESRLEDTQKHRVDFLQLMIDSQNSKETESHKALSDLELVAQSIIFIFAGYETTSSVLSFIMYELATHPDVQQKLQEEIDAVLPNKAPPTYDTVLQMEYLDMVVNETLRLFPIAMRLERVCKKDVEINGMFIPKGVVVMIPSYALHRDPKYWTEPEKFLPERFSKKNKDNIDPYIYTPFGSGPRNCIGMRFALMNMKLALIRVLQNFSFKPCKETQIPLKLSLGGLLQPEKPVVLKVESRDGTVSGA
CYP2D6, sequence (P10635 whole entry): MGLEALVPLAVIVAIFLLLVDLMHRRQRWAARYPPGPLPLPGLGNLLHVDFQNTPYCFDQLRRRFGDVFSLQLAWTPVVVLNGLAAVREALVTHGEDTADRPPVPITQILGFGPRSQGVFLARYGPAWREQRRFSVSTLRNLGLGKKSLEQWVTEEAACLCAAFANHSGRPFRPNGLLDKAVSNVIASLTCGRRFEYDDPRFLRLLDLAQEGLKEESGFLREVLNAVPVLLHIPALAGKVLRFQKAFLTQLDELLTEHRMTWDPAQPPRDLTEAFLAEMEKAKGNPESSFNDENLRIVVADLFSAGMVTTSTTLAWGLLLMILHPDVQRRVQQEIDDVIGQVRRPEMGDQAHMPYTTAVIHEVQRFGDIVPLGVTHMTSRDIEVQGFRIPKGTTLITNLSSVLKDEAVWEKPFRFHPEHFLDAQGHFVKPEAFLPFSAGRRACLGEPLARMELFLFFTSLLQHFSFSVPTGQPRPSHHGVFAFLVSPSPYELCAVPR
CYP2C9, sequence (P11712 whole entry): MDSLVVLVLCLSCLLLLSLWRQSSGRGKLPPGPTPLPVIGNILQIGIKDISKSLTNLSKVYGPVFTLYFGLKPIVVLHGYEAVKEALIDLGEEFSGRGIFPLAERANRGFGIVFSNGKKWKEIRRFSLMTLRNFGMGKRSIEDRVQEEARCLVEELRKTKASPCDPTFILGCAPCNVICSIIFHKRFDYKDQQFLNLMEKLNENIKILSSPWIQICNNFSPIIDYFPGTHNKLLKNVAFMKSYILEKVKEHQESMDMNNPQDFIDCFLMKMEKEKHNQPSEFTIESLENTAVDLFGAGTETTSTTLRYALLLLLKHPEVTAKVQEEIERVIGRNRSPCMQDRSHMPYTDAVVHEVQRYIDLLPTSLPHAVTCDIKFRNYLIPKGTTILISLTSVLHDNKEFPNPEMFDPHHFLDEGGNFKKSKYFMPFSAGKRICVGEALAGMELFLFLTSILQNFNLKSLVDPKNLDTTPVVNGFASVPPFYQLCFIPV
CYP2C19, sequence (P33261 whole entry): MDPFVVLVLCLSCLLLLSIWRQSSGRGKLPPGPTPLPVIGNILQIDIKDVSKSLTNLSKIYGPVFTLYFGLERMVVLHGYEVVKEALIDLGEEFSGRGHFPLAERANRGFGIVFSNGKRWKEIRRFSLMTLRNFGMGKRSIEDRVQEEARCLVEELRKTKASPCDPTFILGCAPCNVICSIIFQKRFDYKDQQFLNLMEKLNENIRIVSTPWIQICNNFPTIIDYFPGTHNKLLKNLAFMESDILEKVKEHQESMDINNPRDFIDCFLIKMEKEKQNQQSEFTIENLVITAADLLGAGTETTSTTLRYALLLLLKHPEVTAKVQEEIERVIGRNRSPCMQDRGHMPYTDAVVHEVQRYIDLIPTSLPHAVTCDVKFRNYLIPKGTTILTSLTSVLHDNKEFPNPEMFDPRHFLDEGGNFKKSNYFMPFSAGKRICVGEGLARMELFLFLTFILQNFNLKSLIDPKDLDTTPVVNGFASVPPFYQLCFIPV

SMILES | inhibition at 10 µM (CYP2C19) | MIC [1] | inhibition at 10 µM (CYP1A2) | inhibition at 10 µM (CYP2D6) | solubility [2] | IC50 [3] | inhibition at 10 µM (CYP3A4) | logD [4] | inhibition at 10 µM (CYP2C9) | GI50 (HeLa)
O=C(c1cc2n(n1)CCCN(Cc1ccc(Cl)c(Cl)c1)C2=O)N1CCCCC1 | 0% | 8 µg/mL | 13% | 0% | 109 µg/mL (≈ 259 µM) | 290 nM | 0% | 2.1 | 13% | > 100 µg/mL
O=C(c1cc2n(n1)CCN(Cc1ccc(Cl)c(Cl)c1)C2=O)N1CCNCC1 | – | > 32 µg/mL | – | – | – | > 10000 nM | – | – | – | –
O=C(c1cc2n(n1)CCN(Cc1ccccc1)C2=O)N1CCCCC1 | – | > 32 µg/mL | – | – | – | > 10000 nM | – | – | – | –
O=C(c1cc2n(n1)CCN(Cc1ccc(Cl)cc1)C2=O)N1CCCCC1 | – | 8 µg/mL | – | – | – | 1050 nM | – | – | – | > 100 µg/mL
CN(C)CCOc1ccc(NC(=O)c2cc3n(n2)CCN(Cc2ccc(Cl)c(Cl)c2)C3=O)cc1 | – | > 32 µg/mL | – | – | – | > 10000 nM | – | – | – | –
CC(=O)N1CCN(C(=O)c2cc3n(n2)CCN(Cc2ccc(Cl)c(Cl)c2)C3=O)CC1 | – | > 32 µg/mL | – | – | – | > 10000 nM | – | – | – | –
O=C(c1cc2n(n1)CCN(CC1CCCCC1)C2=O)N1CCCCC1 | – | > 32 µg/mL | – | – | – | > 10000 nM | – | – | – | –
O=C(c1cn2ccn(Cc3ccc(Cl)c(Cl)c3)c(=O)c2n1)N1CCCCC1 | 6% | 4 µg/mL | 3% | 0% | 1.2 µg/mL (≈ 2.96 µM) | 520 nM | 0% | 3.6 | 0% | > 100 µg/mL
O=C(c1cc2n(n1)CCN(Cc1ccccc1Cl)C2=O)N1CCCCC1 | – | > 32 µg/mL | – | – | – | > 10000 nM | – | – | – | –
CC(C)(C)c1ccc(Cn2ccn3nc(C(=O)N4CCCCC4)cc3c2=O)cc1 | 31% | 2 µg/mL | 0% | 14% | < 1 µg/mL | 280 nM | 0% | 3.7 | 46% | 32 µg/mL (≈ 81.4 µM)
CN(C)C(=O)c1cc2n(n1)CCN(Cc1ccc(Cl)c(Cl)c1)C2=O | – | > 32 µg/mL | – | – | – | > 10000 nM | – | – | – | –
CN1CCn2nc(C(=O)N3CCCCC3)cc2C1=O | – | > 32 µg/mL | – | – | – | > 10000 nM | – | – | – | –
O=C(c1cc2n(c1)CCN(Cc1ccc(Cl)c(Cl)c1)C2=O)N1CCCCC1 | – | 8 µg/mL | – | – | – | 1550 nM | – | – | – | > 100 µg/mL
CC(C)(C)c1ccc(CN2CCn3nc(C(=O)N4CCCCC4)cc3C2=O)cc1 | 0% | 8 µg/mL | 17% | 0% | 54 µg/mL (≈ 137 µM) | 290 nM | 0% | 4 | 19% | > 100 µg/mL
CC(C)(C)c1ccc(CN2CC(O)n3nc(C(=O)N4CCCCC4)cc3C2=O)cc1 (stereo not drawn) | 4% | 16 µg/mL | 0% | 48% | 40 µg/mL (≈ 97.4 µM) | 3300 nM | 0% | 3 | 29% | > 100 µg/mL
CN1CCN(C(=O)c2cc3n(n2)CCN(Cc2ccc(Cl)c(Cl)c2)C3=O)CC1 | – | > 32 µg/mL | – | – | – | > 10000 nM | – | – | – | –
O=C(c1cc2n(n1)CCN(Cc1cccc(Cl)c1)C2=O)N1CCCCC1 | – | 8 µg/mL | – | – | – | 110 nM | – | – | – | > 100 µg/mL
Cc1cccc(CN2CCn3nc(C(=O)N4CCCCC4)cc3C2=O)c1 | – | 16 µg/mL | – | – | – | 42 nM | – | – | – | > 100 µg/mL
O=C(c1cc2n(n1)CCN(Cc1ccc(Cl)c(Cl)c1)C2=O)N1CCC(c2ccccc2)CC1 | – | > 32 µg/mL | – | – | – | > 10000 nM | – | – | – | –
CC(C)(C)OC(=O)N1CCN(C(=O)c2cc3n(n2)CCN(Cc2ccc(Cl)c(Cl)c2)C3=O)CC1 | – | > 32 µg/mL | – | – | – | > 10000 nM | – | – | – | –
O=C(c1cc2n(n1)CCN(Cc1cccc(-c3ccccc3)c1)C2=O)N1CCCCC1 | – | 8 µg/mL | – | – | – | 46 nM | – | – | – | > 100 µg/mL
O=C(c1cc2c(=O)n(Cc3ccc(Cl)c(Cl)c3)ccn2n1)N1CCCCC1 | 11% | 4 µg/mL | 0% | 30% | < 1 µg/mL | 810 nM | 0% | 3.5 | 28% | > 100 µg/mL
O=C(c1cc2n(n1)CCN(c1ccc(Cl)c(Cl)c1)C2=O)N1CCCCC1 | – | > 32 µg/mL | – | – | – | > 10000 nM | – | – | – | –
CC(C)(C)c1ccc(Cn2ccn3cc(C(=O)N4CCCCC4)nc3c2=O)cc1 | 0% | > 32 µg/mL | 0% | 6% | 2.7 µg/mL (≈ 6.88 µM) | 4700 nM | 0% | 4.1 | 2% | > 100 µg/mL
O=C(c1cc2n(n1)CCN(Cc1ccc(Cl)c(Cl)c1)C2=O)N1CCCC1 | – | > 32 µg/mL | – | – | – | > 10000 nM | – | – | – | –
O=C(c1cc2n(n1)CCN(Cc1ccc(Cl)c(Cl)c1)C2=O)N1CCCCC1 | 0% | 16 µg/mL | 13% | 0% | 7.2 µg/mL (≈ 17.7 µM) | 270 nM | 16% | 3.8 | 11% | > 100 µg/mL
Cc1ccc(CN2CCn3nc(C(=O)N4CCCCC4)cc3C2=O)cc1 | – | 8 µg/mL | – | – | – | 520 nM | – | – | – | > 100 µg/mL
O=C(c1cc2n(n1)C(O)CN(Cc1ccc(Cl)c(Cl)c1)C2=O)N1CCCCC1 (stereo not drawn) | 31% | 32 µg/mL | 1% | 21% | < 1 µg/mL | 1050 nM | 0% | 3.1 | 24% | > 100 µg/mL
COc1nc2ccc(Br)cc2cc1C(c1ccccc1)C(O)(CCN(C)C)c1cccc2ccccc12 (racemic) | – | 0.25 µg/mL | – | – | – | 20 nM | – | – | – | –
CC(c1ccc(Cl)c(Cl)c1)N1CCn2nc(C(=O)N3CCCCC3)cc2C1=O (racemic) | – | > 32 µg/mL | – | – | – | > 10000 nM | – | – | – | –
